Source: patent US11326191B2 (LYGOS, INC., priority 2016, dated 2022)

Assays:
[1] = Malonic acid solubility in water at various temperatures; assay type: physicochemical; conditions: 65° C.
[2] = Thermal stability of malonic acid (decarboxylation to acetic acid); assay type: physicochemical

## O=C(O)CC(=O)O [malonic acid, propanedioic acid]
[1]
  solubility limit of malonic acid: 76 % wt/wt
[2]
  temperature at which malonic acid decarboxylates to form acetic acid: approximately 80 °C
[2]; under acidic conditions
  temperature at which malonic acid begins to rapidly decompose: about 80 °C
